Reference: ChEMBL document CHEMBL5724914, “Linking interpersonal differences in gut microbiota composition and drug biotransformation activity” (2024)

Key:
[1] = (§1) The drug is tested on Z-008 corresponding to metagenome with ENA study accession number: PRJEB37062 and ENA sample accession number: ERS12561808 for biotransformation under anaerobic condition. The drug concentrations were measured over 9 timepoints collected between 0 and 24 hours of incubation by liquid-chromatography-coupled mass spectrometry (LC–MS); conditions: 2 µM
[2] = (§2) The drug is tested on WLS-069 corresponding to human gut metagenome with ENA study accession number: PRJEB37062 and ENA sample accession number: ERS12561748 for biotransformation under anaerobic condition. The drug concentrations were measured over 9 timepoints collected between 0 and 24 hours of incubation by liquid-chromatography-coupled mass spectrometry (LC–MS); conditions: 2 µM
[3] = human gut metagenome, 24 h, 2 µM
[4] = human gut metagenome, 24 h, 2 µM; remark: listed apart in the source
[5] = as §1, with “Z-023” for “Z-008”, “ERS12561822” for “ERS12561808”; conditions: 2 µM
[6] = as §2, with “WLS-052” for “WLS-069”, “ERS12561747” for “ERS12561748”; conditions: 2 µM
[7] = human gut metagenome, 24 h, 2 µM; remark: listed apart in the source
[8] = as §2, with “WLS-039” for “WLS-069”, “ERS12561746” for “ERS12561748”; conditions: 2 µM
[9] = as §2, with “WLS-220” for “WLS-069”, “ERS12561769” for “ERS12561748”; conditions: 2 µM
[10] = human gut metagenome, 24 h, 2 µM; remark: listed apart in the source
[11] = as §2, with “Z-030” for “WLS-069”, “mouse” for “human”, “ERS12561829” for “ERS12561748”; conditions: 2 µM
[12] = as §2, with “Z-017” for “WLS-069”, “mouse” for “human”, “ERS12561816” for “ERS12561748”; conditions: 2 µM
[13] = as §2, with “Z-009” for “WLS-069”, “pig” for “human”, “ERS12561809” for “ERS12561748”; conditions: 2 µM
[14] = human gut metagenome, 24 h, 2 µM; remark: listed apart in the source
[15] = as §2, with “WLS-310” for “WLS-069”, “ERS12561785” for “ERS12561748”; conditions: 2 µM
[16] = as §2, with “WLS-090” for “WLS-069”, “ERS12561753” for “ERS12561748”; conditions: 2 µM
[17] = human gut metagenome, 24 h, 2 µM; remark: listed apart in the source
[18] = as §2, with “Z-016” for “WLS-069”, “mouse” for “human”, “ERS12561815” for “ERS12561748”; conditions: 2 µM
[19] = human gut metagenome, 24 h, 2 µM; remark: listed apart in the source
[20] = human gut metagenome, 24 h, 2 µM; remark: listed apart in the source
Further: call rule not given here.

| SMILES | Bacterial Biotransformation [1] | Bacterial Biotransformation [2] | Bacterial Biotransformation [3] | Bacterial Biotransformation [4] | Bacterial Biotransformation [5] | Bacterial Biotransformation [6] | Bacterial Biotransformation [7] | Bacterial Biotransformation [8] | Bacterial Biotransformation [9] | Bacterial Biotransformation [10] | Bacterial Biotransformation [11] | Bacterial Biotransformation [12] | Bacterial Biotransformation [13] | Bacterial Biotransformation [14] | Bacterial Biotransformation [15] | Bacterial Biotransformation [16] | Bacterial Biotransformation [17] | Bacterial Biotransformation [18] | Bacterial Biotransformation [19] | Bacterial Biotransformation [20] |
| --- | --- | --- | --- | --- | --- | --- | --- | --- | --- | --- | --- | --- | --- | --- | --- | --- | --- | --- | --- | --- |
| O=c1n(CCCN2CCN(c3cccc(Cl)c3)CC2)nc2ccccn12 [TRAZODONE] | Compound NOT metabolized | Compound metabolized | Compound metabolized | Compound NOT metabolized | Compound NOT metabolized | Compound NOT metabolized | Compound NOT metabolized | Compound NOT metabolized | Compound metabolized | Compound NOT metabolized | Compound NOT metabolized | Compound NOT metabolized | Compound NOT metabolized | Compound metabolized | Compound NOT metabolized | Compound metabolized | Compound metabolized | Compound NOT metabolized | Compound metabolized | Compound metabolized |
| OC(CCN1CCCCC1)(c1ccccc1)C1CCCCC1 (stereo not given) [TRIHEXYPHENIDYL] | Compound NOT metabolized | Compound metabolized | Compound metabolized | Compound NOT metabolized | Compound metabolized | Compound NOT metabolized | Compound NOT metabolized | Compound metabolized | Compound NOT metabolized | Compound NOT metabolized | Compound NOT metabolized | Compound NOT metabolized | Compound metabolized | Compound NOT metabolized | Compound metabolized | Compound metabolized | Compound metabolized | Compound metabolized | Compound metabolized | Compound metabolized |
